The results in this text go back to ChEMBL document CHEMBL5356991, “Naphthyl bearing 1,3,4-thiadiazoleacetamides targeting the parasitic folate pathway as anti-infectious agents: in silico, synthesis, and biological approach” (RSC Med Chem, 2023).

In general, IC50 refers to the concentration that gives 50% inhibition.

Data set [1] deals with Leishmania donovani. The data set can be described thus: Antileishmanial activity against promastigote stage of Leishmania donovani assessed as parasite growth inhibition incubated for 24 hrs by MTT assay. It is filed as functional, organism-based. (Tetrazolium dyes change colour on reduction, which living cells bring about.)
Data set [2] can be described thus: Cytotoxicity against human HEK293 cells assessed as cell growth at 50 uM incubated for 48 hrs by MTT assay relative to control. To be noted: read-out: Activity. It is filed as toxicity, cell-based.
The nature of data set [3]: Hemolytic activity in human RBC assessed as hemolysis at 12.5 uM incubated for 1 hr by spectrophotometric analysis relative to control. The format is toxicity, cell-based, Erythrocyte. To be noted: human red blood cells (erythrocytes), read-out: Activity.
Data set [4] is described as follows: Safety index, ratio of IC50 for antimalarial activity against chloroquine-sensitive Plasmodium falciparum NF54 to IC50 for cytotoxicity against human HEK293 cells. The format is toxicity, cell-based. To be noted: HEK293 cells versus Plasmodium falciparum NF54, read-out: Ratio IC50.
In data set [5] the test system is Plasmodium falciparum. Put plainly: Antimalarial activity against chloroquine-resistant Plasmodium falciparum W2 assessed as parasite growth inhibition incubated for 72 hrs by Malstat reagent based LDH assay. The format is functional, organism-based. The note with it: W2, 72 h.
The test system of data set [6] is Plasmodium falciparum. The data set can be described thus: Antimalarial activity against chloroquine-sensitive Plasmodium falciparum NF54 assessed as parasite growth inhibition incubated for 72 hrs by Malstat reagent based LDH assay. It is filed as functional, organism-based. The note with it: NF54, 72 h.
In data set [7] the test system is Erythrocyte. Put plainly: Hemolytic activity in human RBC assessed as hemolysis at 200 uM incubated for 1 hr by spectrophotometric analysis. It is filed as toxicity, cell-based.
The subject of data set [8] is Vero. Put plainly: Cytotoxicity against African green monkey Vero cells upto 1000 uM. It is filed as toxicity, cell-based. The note with it: chlorocebus sabaeus.
The target of data set [9] is T1, Dihydrofolate reductase (Bos taurus, UniProt P00376).
T1 sequence (P00376 whole entry): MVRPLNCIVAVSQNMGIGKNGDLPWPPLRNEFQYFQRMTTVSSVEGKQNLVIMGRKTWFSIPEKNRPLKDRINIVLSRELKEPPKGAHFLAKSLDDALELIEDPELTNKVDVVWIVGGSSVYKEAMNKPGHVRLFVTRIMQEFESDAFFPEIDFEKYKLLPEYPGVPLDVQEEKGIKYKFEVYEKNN
Put plainly: Inhibition of bovine liver DHFR incubated for 12 mins in presence of NADPH.

A short description of data set [10]: Selectivity index, ratio of IC50 for cytotoxicity against African green monkey Vero cells to IC50 for inhibition of bovine liver DHFR.
Data set [11] can be described thus: Cytotoxicity against human HEK293 cells incubated for 48 hrs by MTT assay. It is filed as toxicity, cell-based.
In data set [12] the test system is Erythrocyte. Put plainly: Hemolytic activity in human RBC assessed as hemolysis at 12.5 to 200 uM incubated for 1 hr by spectrophotometric analysis. It is filed as toxicity, cell-based. The note with it: dose 12.5-200 µM.
For data set [13], the system named is Plasmodium falciparum. Put plainly: Resistance index, ratio of IC50 for antimalarial activity against chloroquine-resistant Plasmodium falciparum W2 to IC50 for antimalarial activity against chloroquine-sensitive Plasmodium falciparum NF54. It is filed as functional.

SMILES strings stand for the structures.

Take `CCOC(=O)c1cnc2ccccc2c1N1CCN(CC(=O)Nc2nnc(COc3ccc4ccccc4c3)s2)CC1`: the IC50 in data set [1] was 5.32 µM; in data set [5] it was greater than 10 µM; in [6], 28.9 µM. Moreover, the viability at 48 h, 50 µM in data set [2] was found to be 59.8%. Further, the hemolysis at 1 h, 12.5 µM in [3] is less than 10%. Moreover, the selectivity ratio in data set [4] is 1.73.

For the compound `O=C(CN1CCCCC1)Nc1nnc(COc2ccc3ccccc3c2)s1`, the IC50 in [1] is 6.71 µM; in [5], greater than 10 µM; in data set [6] it was 21.5 µM. Besides, in data set [2], the viability at 48 h, 50 µM is 86.9%. Besides, the Activity result in data set [7] is on record as “Toxic”. Besides, in data set [3], the hemolysis at 1 h, 12.5 µM is less than 10%. The selectivity ratio in data set [4] amounted to 2.33.

On to `C=C[C@H]1CN2CC[C@H]1C[C@H]2[C@H](O)c1ccnc2ccc(OC)cc12` [QUININE], for which the 50% inhibitory concentration (IC50) in data set [6] stood at 0.108 µM.

For `Cc1ccc(N2CCN(CC(=O)Nc3nnc(COc4ccc5ccccc5c4)s3)CC2)cc1`, the IC50 in data set [1] was 6.19 µM; in [5], greater than 10 µM; in data set [6], 63.7 µM. For the same compound, the viability at 48 h, 50 µM in data set [2] worked out at 66.4%. The hemolysis at 1 h, 12.5 µM in [3] was less than 10%. For the same compound, the selectivity ratio in data set [4] is 0.79.

`O=C(CN1CCN(C(c2ccccc2)c2ccccc2)CC1)Nc1nnc(COc2ccc3ccccc3c2)s1`: the IC50 in [1] was 3.55 µM; in [9] it was 1.87 µM; in data set [5] it was greater than 10 µM; in [6], 0.94 µM. In data set [2], the viability at 48 h, 50 µM is 94.4%. For the same compound, the Activity entry in [8] was “Non-Toxic”; in [7], “Toxic”. Also, the hemolysis at 1 h, 12.5 µM in data set [3] is less than 10%. The selectivity ratio in [4] was found to be 53.2. Further, the “Ratio IC50” value in data set [10] amounted to 535.245.

As for `CCCCCCCCCCCCCCCCOP(=O)([O-])OCC[N+](C)(C)C` [MILTEFOSINE], the IC50 in data set [1] amounted to 0.19 µM.

On to `O=C(CN1CCOCC1)Nc1nnc(COc2ccc3ccccc3c2)s1`, for which the IC50 was 5.94 µM in [1], greater than 10 µM in data set [5] and 10.7 µM in data set [6]. The viability at 48 h, 50 µM in data set [2] was found to be 70%. For the same compound, in data set [3], the hemolysis at 1 h, 12.5 µM was less than 10%. In addition, in data set [4], the selectivity ratio was 6.54.

For `O=C(CN1CCN(c2ccccc2O)CC1)Nc1nnc(COc2ccc3ccccc3c2)s1`, the 50% inhibitory concentration (IC50) is 4.34 µM in data set [1], 2.5 µM in data set [9], greater than 10 µM in data set [5] and 3.47 µM in data set [6]. Also, the viability at 48 h, 50 µM in data set [2] amounted to 92.9%. Moreover, the Activity result is “Non-Toxic” in data set [8] and “Toxic” in data set [7]. Also, the hemolysis at 1 h, 12.5 µM in data set [3] was less than 10%. The selectivity ratio in data set [4] was found to be 14.4. Besides, the “Ratio IC50” value in data set [10] amounted to 400.881.

`CN1CCN(CC(=O)Nc2nnc(COc3ccc4ccccc4c3)s2)CC1`: the IC50 in [1] is 7.09 µM; in data set [5], greater than 10 µM; in data set [6], 7.83 µM. Besides, the viability at 48 h, 50 µM in data set [2] was 42.8%. Also, the hemolysis at 1 h, 12.5 µM in data set [3] was less than 10%. Also, the selectivity ratio in data set [4] worked out at 8.85. Further, in data set [11], the IC50 at 48 h was 69.2 µM.

Turning to `O=C(CN1CCN(c2cc(N3CCOCC3)ncn2)CC1)Nc1nnc(COc2ccc3ccccc3c2)s1`, the figures for the IC50 in data set [1], in data set [5] and in data set [6] were 6.61 µM, greater than 10 µM and 61.3 µM, respectively. In addition, the viability at 48 h, 50 µM in data set [2] came to 87.4%. For the same compound, in data set [3], the hemolysis at 1 h, 12.5 µM is less than 10%. For the same compound, the selectivity ratio in data set [4] came out at 0.82.

With `COc1ccc(N2CCN(CC(=O)Nc3nnc(COc4ccc5ccccc5c4)s3)CC2)cc1`, the IC50 is 5.53 µM in data set [1], greater than 10 µM in [5] and greater than 200 µM in [6]. The viability at 48 h, 50 µM in data set [2] came to 58%. Also, in data set [3], the hemolysis at 1 h, 12.5 µM is less than 10%. The selectivity ratio in data set [4] was found to be 0.25.

For `CCN(CC)CCCC(C)Nc1ccnc2cc(Cl)ccc12` (stereo unspecified) [CHLOROQUINE], in data set [2], the viability at 48 h, 50 µM came out at 58.5%. Moreover, in data set [11], the IC50 at 48 h came to 17.2 µM. The Activity result in data set [12] is “Toxic”.

Turning to `O=C(CN1CCN(c2ccnc3cc(Cl)ccc23)CC1)Nc1nnc(COc2ccc3ccccc3c2)s1`, the half-inhibitory concentration (IC50) in [1] stood at 7.2 µM; in data set [9] it was 2.94 µM; in [5], 3.92 µM; in data set [6] it was 3.93 µM. The viability at 48 h, 50 µM in data set [2] worked out at 43.3%. For the same compound, the Activity result is reported as “Non-Toxic” in data set [8] and “Toxic” in [7]. Also, the “Ratio IC50” value in [13] was found to be 0.99; in data set [10], 340.518. In addition, in data set [3], the hemolysis at 1 h, 12.5 µM is less than 10%. Also, the selectivity ratio in [4] came out at 9.44. Besides, in [11], the IC50 at 48 h amounted to 70.4 µM.
